Series [1] is described as follows: Clearance in rat at 0.1 mg/kg, iv administered as cassette dose measured upto 24 hrs by LC-MS/MS method. It is filed as ADME, organism-based. The note with it: in vivo.
Series [2] is described as follows: Mean residence time in rat at 0.1 mg/kg, iv administered as cassette dose measured upto 24 hrs by LC-MS/MS method. The following applies: in vivo. It is filed as ADME, organism-based.
A short description of series [3]: Unbound clearance in rat at 0.1 mg/kg, iv administered as cassette dose measured upto 24 hrs by LC-MS/MS method. Type of series: ADME, organism-based. The following applies: in vivo.
The nature of series [4]: Unbound clearance in dog at 3 mg/kg, po or 0.5 mg/kg, iv measured upto 24 hrs by LC-MS/MS method. The following applies: in vivo. Type of series: ADME, organism-based, Canis lupus familiaris.
The nature of series [5]: Oral bioavailability in dog at 3 mg/kg measured upto 24 hrs by LC-MS/MS method. The following applies: in vivo. Type of series: ADME, organism-based, Canis lupus familiaris.
A short description of series [6]: Unbound clearance in rhesus monkey at 2 mg/kg, iv measured upto 24 hrs by LC-MS/MS method. It is filed as ADME, organism-based, Macaca mulatta. The following applies: in vivo.
Series [7] can be described thus: Unbound brain-to-plasma concentration ratio in rat. It is filed as ADME, cell-free. The note with it: read-out: K(p,uu,brain).
Series [8] in a line: Mean residence time in rat at 10 mg/kg, po or 2 mg/kg, iv measured upto 24 hrs by LC-MS/MS method. It is filed as ADME, organism-based. The note with it: in vivo.
Series [9] can be described thus: Oral bioavailability in rat at 10 mg/kg measured upto 24 hrs by LC-MS/MS method. Type of series: ADME, organism-based. The note with it: in vivo.
Series [10] is described as follows: Unbound brain-to-plasma concentration ratio in non human primates. The following applies: read-out: K(p,uu,brain). It is filed as ADME, cell-free.
A short description of series [11]: Mean residence time in dog at 3 mg/kg, po or 0.5 mg/kg, iv measured upto 24 hrs by LC-MS/MS method. It is filed as ADME, organism-based, Canis lupus familiaris. The following applies: in vivo.
Series [12] is described as follows: Unbound clearance in rat at 10 mg/kg, po or 2 mg/kg, iv measured upto 24 hrs by LC-MS/MS method. Type of series: ADME, organism-based. The following applies: in vivo.
A short description of series [13]: Mean residence time in rhesus monkey at 2 mg/kg, iv measured upto 24 hrs by LC-MS/MS method. The note with it: in vivo. Type of series: ADME, organism-based, Macaca mulatta.
The nature of series [14]: Clearance in rhesus monkey at 2 mg/kg, iv measured upto 24 hrs by LC-MS/MS method. It is filed as ADME, organism-based, Macaca mulatta. The note with it: in vivo.

The structures appear in SMILES notation.

In series [1], `C[C@@H]1CN(c2cc(-c3ncc4ccc(-c5cnn(C)c5)cn34)ccn2)C[C@H](C)O1` gave a clearance of 98 mL/min/kg. For the same compound, the MRT in series [2] came to 0.5 h. In series [3], this compound came in with a CL free of 5850 mL/min/kg.
On to `C[C@@H]1CN(c2cc(-c3n[nH]c4ccc(OC5(C)CC5)cc34)ncn2)C[C@H](C)O1` [MLi-2], for which the CL free in [4] came out at 3200 mL/min/kg; in series [6], 3400 mL/min/kg; in series [12] it was 12700 mL/min/kg. The bioavailability in series [5] came to 100%; in [9] it was 38%. Besides, the results for the Kp uu in [7] and in series [10] were 0.5 and 0.4, respectively. In addition, the MRT is 2 h in [8], 7 h in series [11] and 1.5 h in series [13]. This compound also gave a clearance in [14] of 16 mL/min/kg.

A word on the clearance: it is the rate of elimination divided by the concentration. The MRT is the average time that molecules of a dose stay in the body. As a reminder, the bioavailability is dose-corrected exposure relative to a reference, in per cent.

(Values after ChEMBL document CHEMBL5236618, “Discovery and Optimization of Potent, Selective, and Brain-Penetrant 1-Heteroaryl-1H-Indazole LRRK2 Kinase Inhibitors for the Treatment of Parkinson's Disease” (J Med Chem, 2022).)
